# In patent US20110245213A1, “TREATMENT” (PROVEXIS NATURAL PRODUCTS LIMITED, priority 2008, published 2011):
# Where “and” joins values, the source holds several entries; their conditions need not be identical. Equal values may be shown once.
# Key:
# bovine insulin = target: T1, bovine insulin (Bos taurus, UniProt P01317); experiment: Incubation of peptides with isothiocyanates, LC-MS/MS: insulin; format: binding; details: for conjugate of insulin peptide and ITC: PBS pH 7.4, 37° C., 0.5 to 24 hours
# T1 construct: m/z 325.2 corresponds to Phe-SF, the N-terminal amino acid of insulin B chain; m/z 235.0 corresponds to Gly-SF, the N-terminal amino acid of insulin A chain; purchased Sigma-Aldrich
# T1 sequence (P01317 25-54 limits assumed): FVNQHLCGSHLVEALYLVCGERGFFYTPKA
# T1 sequence (P01317 85-105 limits assumed): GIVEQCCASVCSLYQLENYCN
# Protocol: (§1) Incubations of SF or IB with bovine insulin (P01308, Sigma-Aldrich), recombinant human epidermal growth factor (EGF, P01133, R&D Systems, http://www.rndsystems.com/) and recombinant human transforming growth factor beta 1 (TGFβ1, P01137, R&D Systems) were performed in sodium phosphate-buffered saline solution (pH 7.4) or human blood plasma at 37° C. for 0.5-24 h. Plasma was pre-treated by ultrafiltration to remove high molecular weight proteins (Microcon Ultracel YM-30 filter, MWCO 30,000). Samples were either analyzed directly by LC-MS/MS or by LC-MS/MS analysis of tryptic digests of gel electrophoresis bands.
# (§2) The LC system used was a Shimadzu series 10AD VP (Shimadzu, http://www.shimadzu.com/). The column was an ACE 300 C18, 150×2.1 mm (5 μm particle size) used at 40° C. Mobile phase A was 0.1% formic acid in water, mobile phase B, 0.1% formic acid in acetonitrile and the flow rate was 0.25 ml/min. A linear gradient was used from 25% B to 35% B over 0 to 5 min, then a further gradient from 35% B to 99% B over 6 min followed by 99% B for 4 min. The column was re-equilibrated for a total of 3 min. The injection volume was between 5-20 μl. All MS experiments were conducted on a 4000 QTRAP hybrid triple-quadrupole linear ion trap mass spectrometer using Analyst version 1.4.1 software (Applied Biosystems, http://www.appliedbiosystems.com/) equipped with a TurboIon source used in positive ion electrospray mode. The probe capillary voltage was optimized at 4200 V, desolvation temperature set to 400° C., curtain gas, nebulizing and turbo spray gas were set to 40, 10 and 20, respectively (arbitrary values). […] The peak-width was set on Q1 and Q3 at 1.0 Th (measured at half height) for all MS and MS/MS experiments. Spectra were obtained over the range m/z 800-2000 with scan times of 1-2 sec. […]
# [1] = target: T2, recombinant human epidermal growth factor (EGF) (Homo sapiens, UniProt P01133); experiment: Incubation of peptides with isothiocyanates, LC-MS/MS: EGF; format: binding; details: for conjugate of EGF peptide and ITC: PBS pH 7.4, 37° C., 0.5 to 24 hours
# T2 construct: addition of SF to the N-terminal asparagines residue (m/z 309) of EGF; purchased R&D Systems
# T2 sequence (P01133 971-1023 limits assumed): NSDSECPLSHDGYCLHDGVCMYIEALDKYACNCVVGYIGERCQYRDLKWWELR
# Protocol: as §1, §2
# [2] = target: T3, recombinant human transforming growth factor beta 1 (TGFβ1) (Homo sapiens, UniProt P01137); experiment: Incubation of peptides with isothiocyanates, LC-MS/MS: TGFβ1; format: binding; details: for conjugate of TGFβ1 peptide and ITC: PBS pH 7.4, 37° C., 0.5 to 24 hours
# T3 construct: TGFβ1 was robustly identified in bands of 25 kDa corresponding to the active dimer; purchased R&D Systems
# T3 sequence (P01137 279-390 limits assumed): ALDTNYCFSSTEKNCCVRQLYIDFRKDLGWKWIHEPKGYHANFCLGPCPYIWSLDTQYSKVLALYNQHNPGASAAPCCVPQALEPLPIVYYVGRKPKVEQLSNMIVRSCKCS
# Protocol: as §1
# 1 μg aliquots of the TGFβ1 protein, supplied with bovine serum albumin as carrier, were incubated with either DMSO or 1.2 μmoles of SF for 30 minutes at 37° C. and run onto denaturing 4-12% Bis-Tris NuPAGE gels (Invitrogen, http://www.invitrogen.com). Bands were excised and digested with trypsin (Promega, http://www.promega.com/) after reduction with dithiothreitol (DTT) and alklyation with iodoacetamide (Sigma-Aldrich, http://www.sigmaaldrich.com/). Extracted peptides were lyophilized and re-dissolved in 1% acetonitrile, 0.1% formic acid for analysis by mass spectrometry. LC-MS/MS analysis was performed using a LTQ mass spectrometer (Thermo Electron Corporation, http://www.thermo.com/) and a nanoflow-HPLC system (Surveyor, Thermo Electron). Peptides were applied to a precolumn (C18 pepmap100, LC Packings, http://www.lcpackings.com/) connected to a self-packed C18 8-cm analytical column (BioBasic resin ThermoElectron; Picotip 75 μm id, 15 μm tip, New Objective, http://www.newobjective.com/). Peptides were eluted by a gradient of 2 to 30% acetonitrile in 0.1% formic acid over 40 min at a flow rate of approximately 250 nL min^−1. Data-dependent acquisition of MS/MS consisted of selection of the five most abundant ions in each cycle: MS mass-to-charge ratio (m/z) 300 to 2000, minimum signal 1000, collision energy 25, 5 repeat hits, 300 sec exclusion.
# [3] = system: Smad2 phosphorylation in PC3 cells; experiment: Quantification of pSmad2 protein in PC3 cells; format: cell-based; details: for PSmad2 / PSmad2 Normalised to GAPDH: PC3 cells
# Protocol: FIG. 14 represents (a) a photograph of a gel; and (b) the data quantified in a bar chart which corresponds to the data presented in Table 6 as discussed in Example 2 (Expt 2). The data illustrates how an ITC modulates Smad activity. The experiment concerned pre-incubation of TGFβ1 with and without sulforaphane (SF) for 30 minutes before treating PC3 cells for 1 h and then measuring Smad2 phosphorylation (i.e. a function of TGFβ1 activity).
# TGFβ1 acts an anti-inflammatory cytokine. It induces phosphorylation of smad proteins that translocate to the nucleus and induce gene expression associated with anti-inflammatory activity. […] Therefore ITCs act as anti-inflammatory mediators.
# [4] = following broccoli consumption, cited from earlier work
# [5] = system: EGF receptor phosphorylation in BPH1 cells (hyperplastic prostate cells); details: BPH cells
# [6] = system: TGFβ1/Smad mediated transcription; experiment: Luciferase reporter gene assay in NIH 3T3 cells with CAGA12-luc plasmid; format: cell-based
# Protocol: NIH 3T3 cells stably transfected with a CAGA12-luc plasmid, which responds to Smad activation (Dennler et al. (1998) Embo J 17: 3091-3100), were cultured in DMEM supplemented with 10% fetal calf serum (FCS), 1% penicillin, 1% streptomycin, 1% L-glutamine and 0.4 mg/ml geneticin. Cells were seeded into complete growth medium in a six-well tissue culture dish for 24 h, after which the medium was replaced with low serum medium (0.5% FCS) containing one of three treatments:
# (1) TGFβ1 (to achieve a final concentration of 2 ng ml^−1) in PBS buffer,
# (2) (TGFβ1+10 mM DTT in PBS buffer
# (3) TGFβ1+2 μM SF in PBS buffer.
# To simulate SF pharmacokinetics, all test samples were incubated at 37° C. for 30 minutes prior to dialysis, performed in PBS buffer for 4 hours using Slide-A-Lyzer Dialysis Cassettes MWCO 3.5K (PIERCE, http://www.piercenet.com/). Dialysis reduced SF concentration to 34 nM. As additional controls, cells were treated with PBS without TGFβ1 and PBS with SF (34 nM). The luciferase activity was determined 16 h following treatment using the Luciferase Reporter Gene assay (Roche Applied Science, http://www.roche.com/) in a Perkin Elmer Wallac Victor 2 1420 multilabel counter plate reader (http://las.perkinelmer.com/). Briefly, cells were washed twice with PBS and lysed in cell lysis buffer supplied with the assay. Chemiluminescence was immediately quantified following the addition of luciferase assay substrate. Luciferase values were normalized to protein concentration quantified using the BCA assay (Sigma-Aldrich, http://www.sigmaaldrich.com/). The experiment was repeated four times, with three replicates of each treatment per experiment. Statistical analysis was performed using 1-way ANOVA with the statistical software, R (http://www.R-project.org).
# [7] = system: Smad2 phosphorylation in A549 cells; experiment: Quantification of pSmad2 protein in A549 cells; format: cell-based; details: TGFβ1 alone
# [8] = TGFβ1 + 2 μM SF, pre-incubated 30 minutes, cells treated 1 h
# [9] = TGFβ1 + 10 μM SF, pre-incubated 30 minutes, cells treated 1 h
compound,measurement,setting,value
"C[S+]([O-])CCCN=C=S (stereo not shown) [IB, iberin]",conjugate of insulin peptide and ITC,bovine insulin,formation of a covalently bound conjugate
same,conjugate of EGF peptide and ITC,[1],formation of a covalently bound conjugate
same,conjugate of TGFβ1 peptide and ITC,[2],formation of a covalently bound conjugate
"C[S+]([O-])CCCCN=C=S (stereo not shown) [SF, sulforaphane]",expression of pSmad2 compared to TGFβ1 alone,"[3]; PC3 cell line, co-exposure to TGFβ1 and SF",enhances expression of psamd2
same,PSmad2,[3]; [8],8179 counts/mm^2 and 12578 counts/mm^2 and 11881 counts/mm^2
same,PSmad2 Normalised to GAPDH,[3]; [8],0.1772 and 0.2807 and 0.3091
same,PSmad2,[3]; [9],13595 counts/mm^2 and 16870 counts/mm^2 and 15049 counts/mm^2
same,PSmad2 Normalised to GAPDH,[3]; [9],0.2602 and 0.2810 and 0.3104
same,conjugate of insulin peptide and ITC,bovine insulin,formation of a covalently bound conjugate
same,insulin-ITC conjugates (N-terminal Gly and Phe) by LC-MS/MS,bovine insulin; human plasma depleted of high MW proteins,appearance of two insulin-SF conjugates
same,"SF in the plasma that occurs as free SF, as opposed to thiol conjugates",[4],45%
same,peak concentration of SF and its thiol conjugates,[4]; plasma,less than 2 μM
same,reduction in EGF receptor phosphorylation,"[5]; 10 μmol/L sulforaphane, 10 mg/L EGF, 10 minute timecourse",approximately threefold
same,amount of phosphorylated EGF receptor compared to EGF alone,[5]; pre-incubation of EGF with ITC,reduces the amount of phosphorylated receptor
same,Smad-mediated transcription (luciferase) compared to TGFβ1 alone,[6]; TGFβ1 pre-incubated with 2 μM SF for 30 minutes followed by dialysis (SF 34 nM),increase in Smad-mediated transcription
same,Smad-mediated transcription (luciferase),"[6]; residual SF (34 nM) alone, without TGFβ1",did not result in enhanced transcription
same,conjugate of EGF peptide and ITC,[1],formation of a covalently bound conjugate
same,EGF conjugates (N-terminal asparagine) by LC-MS/MS,[1]; human plasma,formation of EGF conjugates with SF
same,"modification of TGFβ1 (tryptic N-terminal peptide, LC-MS/MS)","[2]; 1 μg TGFβ1 with 1.2 μmoles of SF, 30 minutes at 37° C., SDS-PAGE, trypsin",N-terminal modification
same,conjugate of TGFβ1 peptide and ITC,[2],formation of a covalently bound conjugate
"TGFβ1: recombinant human transforming growth factor beta 1 (P01137, R&D Systems)",PSmad2,[7],1570 counts/mm^2
same,PSmad2 Normalised to GAPDH,[7],0.1320
same,PSmad2,"[3]; TGFβ1 alone, 1 h",6154 counts/mm^2 and 10910 counts/mm^2 and 7089 counts/mm^2
same,PSmad2 Normalised to GAPDH,"[3]; TGFβ1 alone, 1 h",0.1039 and 0.1722 and 0.1398
same,luciferase activity,"[6]; TGFβ1 alone, 2 ng ml^−1",induced luciferase activity
